Test results reported in ChEMBL document CHEMBL3045865, “Synthesis and antitumor activity of new pyrido[2,3-d]pyrimidine derivatives” (2013).
Active and inactive are the calls of the source. No cut-off for these calls is given here.

Legend:
[1] = Induction of bleomycin-dependent DNA damage at 0.1 mg/ml after 1 hr
[2] = Antineoplastic activity against Mus musculus (mouse) EACs transplanted in Swiss albino Mus musculus (mouse) assessed as decrease in WBC level at 5 mg/kg, ip administered 9 days measured on day 14 (reference value: 38.6 10^3/mm3); format: functional, Ehrlich; details: route intraperitoneal
[3] = Antineoplastic activity against Mus musculus (mouse) EACs transplanted in Swiss albino mouse assessed as increase in life span at 5 mg/kg, ip after 9 days (reference value: 9.1%); format: functional, Ehrlich; details: route intraperitoneal
Ehrlich = experiment: Antineoplastic activity against Mus musculus (mouse) EACs transplanted in Swiss albino mouse assessed as reduction in viable tumor cell count at 5 mg/kg, ip after 5 days by Giemsa staining; format: functional, organism-based; design: dose 5 mg/kg
[4] = Antineoplastic activity against Mus musculus (mouse) EACs transplanted in Swiss albino Mus musculus (mouse) assessed as increase in hemoglobin level at 5 mg/kg, ip administered 9 days measured on day 14 (reference value: 8.7 g%); format: functional, Ehrlich; details: route intraperitoneal
[5] = Antineoplastic activity against Mus musculus (mouse) EACs transplanted in Swiss albino Mus musculus (mouse) assessed as increase in hematocritis level at 5 mg/kg, ip administered 9 days measured on day 14 (reference value: 35.5 g%); format: functional, Ehrlich; details: route intraperitoneal
[6] = Antineoplastic activity against Mus musculus (mouse) EACs transplanted in Swiss albino mouse assessed as increase in life span at 20 mg/kg, ip after 9 days (reference value: 9.1%); format: functional, Ehrlich; details: route intraperitoneal

SMILES | Activity [1] | further results
O=C(NNC(=S)Nc1ccc(F)cc1)c1cc(=O)[nH]c2[nH]c(=O)[nH]c(=O)c12 | Active | 
NNC(=O)c1cc(=O)[nH]c2[nH]c(=O)[nH]c(=O)c12 | Active | 
COc1ccc(/C=N/NC(=O)c2cc(=O)[nH]c3[nH]c(=O)[nH]c(=O)c23)cc1 | Active | 
COc1ccc(N2CCN(CC(=O)NNC(=O)c3cc(=O)[nH]c4[nH]c(=O)[nH]c(=O)c34)CC2)cc1 | Active | 
COC(=O)c1cc(=O)[nH]c2[nH]c(=O)[nH]c(=O)c12 | Active | 
O=C(NNC(=S)Nc1ccccc1)c1cc(=O)[nH]c2[nH]c(=O)[nH]c(=O)c12 | Active | 
O=c1cc(-c2nnc(S)n2-c2ccccc2)c2c(=O)[nH]c(=O)[nH]c2[nH]1 | Active | Activity [2]: 11.2 ×10³ /mm3; Activity [3]: 18.6%; Activity (Ehrlich): Active; Activity [4]: 11.7 g%; Activity [5]: 51.6%
O=C(CCl)Sc1nnc(-c2cc(=O)[nH]c3[nH]c(=O)[nH]c(=O)c23)n1-c1ccc(F)cc1 | Active | 
O=c1cc(-c2nnc(S)n2-c2ccc(F)cc2)c2c(=O)[nH]c(=O)[nH]c2[nH]1 | Active | 
O=C(CN1CCN(c2ccccc2)CC1)Sc1nnc(-c2cc(=O)[nH]c3[nH]c(=O)[nH]c(=O)c23)n1-c1ccc(F)cc1 | Active | 
O=C(N/N=C/c1cccc([N+](=O)[O-])c1)c1cc(=O)[nH]c2[nH]c(=O)[nH]c(=O)c12 | Active | 
O=c1[nH]cc(F)c(=O)[nH]1 [FLUOROURACIL] |  | Activity [2]: 13.8 ×10³ /mm3; Activity [4]: 10 g%; Activity [6]: 16.7%; Activity [5]: 42.3%
O=C(CCl)NNC(=O)c1cc(=O)[nH]c2[nH]c(=O)[nH]c(=O)c12 | Active | 
O=C(CN1CCN(c2ccccc2)CC1)NNC(=O)c1cc(=O)[nH]c2[nH]c(=O)[nH]c(=O)c12 | Active | 
